# Reference: patent publication US20060293307A1, “Oxazolidinone derivatives as antimicrobials” (priority 2002, published 2006)
# Where two headings read alike, the source gives them in different places.
# Tests used:
# Test in all cases: MIC, agar incorporation method
# [1] = test system: Acinetobacter 9956; format: cell-based; settings: S. No. 30, Acinetobacter 9956
# [2] = test system: S. pneumoniae AB 16; format: cell-based, Streptococcus pneumoniae; settings: S. No. 39, S. pneumoniae AB 16
# [3] = test system: (MRSA) 562; format: cell-based, Staphylococcus aureus; settings: S. No. 8, (MRSA) 562
# [4] = test system: S. pneumoniae AB4; format: cell-based, Streptococcus pneumoniae; settings: S. No. 33, S. pneumoniae AB4
# [5] = test system: S. epidermidis 358; format: cell-based, Staphylococcus epidermidis; settings: S. No. 14, S. epidermidis 358
# [6] = test system: S. pneumoniae AB 30; format: cell-based, Streptococcus pneumoniae; settings: S. No. 47, S. pneumoniae AB 30
# [7] = test system: E. faecium 398(VRE); format: cell-based, Enterococcus faecium; settings: S. No. 22, E. faecium 398(VRE)
# [8] = test system: S. pneumoniae AB 23; format: cell-based, Streptococcus pneumoniae; settings: S. No. 43, S. pneumoniae AB 23
# [9] = test system: S. aureus (MRSA) 21299; format: cell-based, Staphylococcus aureus; settings: S. No. 5, S. aureus (MRSA) 21299
# [10] = test system: E. coli 25922; format: cell-based; settings: S. No. 25, E. coli 25922
# [11] = test system: S. pneumoniae 1256; format: cell-based, Streptococcus pneumoniae; settings: S. No. 56, S. pneumoniae 1256
# [12] = test system: S. pneumoniae AB-3; format: cell-based, Streptococcus pneumoniae; settings: S. No. 32, S. pneumoniae AB-3
# [13] = test system: K. oxytoca 49131; format: cell-based; settings: S. No. 27, K. oxytoca 49131
# [14] = test system: S. haemo ATCC 29970; format: cell-based; settings: S. No. 15, S. haemo ATCC 29970
# [15] = test system: S pneumoniae 1294.; format: cell-based, Streptococcus pneumoniae; settings: S. No. 55, S pneumoniae 1294.
# [16] = test system: S. pneumoniae 1275; format: cell-based, Streptococcus pneumoniae; settings: S. No. 57, S. pneumoniae 1275
# [17] = test system: S. pneumoniae CS1221; format: cell-based, Streptococcus pneumoniae; settings: S. No. 34, S. pneumoniae CS1221
# [18] = test system: S. aureus (MRSA 33) Cipro R; format: cell-based, Staphylococcus aureus; settings: S. No. 7, S. aureus (MRSA 33) Cipro R
# [19] = test system: E. durans 581; format: cell-based; settings: S. No. 24, E. durans 581
# [20] = test system: E. faecalis SP 346 (VRE); format: cell-based; settings: S. No. 20, E. faecalis SP 346 (VRE)
# [21] = test system: S. pyogenes 20361; format: cell-based, Streptococcus pyogenes; settings: S. No. 53, S. pyogenes 20361
# [22] = test system: S. pneumoniae AB 22; format: cell-based, Streptococcus pneumoniae; settings: S. No. 42, S. pneumoniae AB 22
# [23] = test system: S. aureus ATCC 25923; format: cell-based, Staphylococcus aureus; settings: S. No. 1, organism cell empty
# [24] = test system: S. pneumoniae ATCC 49619; format: cell-based, Streptococcus pneumoniae; settings: S. No. 48, S. pneumoniae ATCC 49619
# [25] = test system: P. aeruginosa ATCC 27853; format: cell-based; settings: S. No. 28, P. aeruginosa ATCC 27853
# [26] = test system: S. epidermidis 823; format: cell-based, Staphylococcus epidermidis; settings: S. No. 12, S. epidermidis 823
# [27] = test system: S. pneumoniae 217; format: cell-based, Streptococcus pneumoniae; settings: S. No. 38, S. pneumoniae 217
# [28] = test system: Salmonella 205; format: cell-based; settings: S. No. 26, Salmonella 205
# Procedure: The compounds of the invention display antibacterial activity when tested by the agar incorporation method. The following minimum inhibitory concentrations (μg/ml) were obtained for representative compounds of the invention which are given below in the following tables.
# Briefly, the compounds were dissolved in DMSO and doubling dilution of the compounds were incorporated into Meer Hilton agar before solidification. Inoculum was prepared by suspending 4 to 5 colonies into 5 ml of normal saline solution and adjusting the turbidity to 0.5 Macfarland turbidity standard tables (1.5×10^8 CFU/ml), after appropriate dilutions, 10^4 CFU/spot was transfered into the surface of dried plate and incubated for 18 hours (24 hours for MRSN studies). The concentration showing no growth of the inoculated culture was recorded as the MIC. Appropriate ATCC standard strains were simultaneously tested and result recorded only when the MIC's against standard antibiotics were within the acceptable range.
# [29] = test system: E. faecium 6A (VRE); format: cell-based, Enterococcus faecium; settings: S. No. 21, E. faecium 6A (VRE)
# [30] = test system: S. pneumoniae 1251; format: cell-based, Streptococcus pneumoniae; settings: S. No. 54, S. pneumoniae 1251
# [31] = test system: S. pneumoniae AB 34; format: cell-based, Streptococcus pneumoniae; settings: S. No. 49, S. pneumoniae AB 34
# [32] = test system: S. pneumoniae AB 14; format: cell-based, Streptococcus pneumoniae; settings: S. No. 37, S. pneumoniae AB 14
# [33] = Staphylococcus aureus, read-out: MIC
# [34] = Streptococcus pneumoniae, read-out: MIC
# [35] = Staphylococcus epidermidis, read-out: MIC
# [36] = Enterococcus faecium, read-out: MIC
structure (smiles),measurement,setting,value
"CC(=O)NC[C@H]1CN(c2ccc(N3CCN(c4ccc([N+](=O)[O-])o4)CC3)c(F)c2)C(=O)O1 [Compound No. 4, (S)—N-[[3-[3-Fluoro-4-[4-(5-nitro-2-furyl)-1-piperazinyl]phenyl]-2-oxo-5-oxazolidinyl]methyl]acetamide]",MIC,[1]; read-out: MIC,> 16 µg/mL
same,MIC,"[2]; Streptococcus pneumoniae, AB16, read-out: MIC",8 µg/mL
same,MIC,[3]; [33],16 µg/mL
same,MIC,[4]; [34],8 µg/mL
same,MIC,[5]; [35],4 µg/mL
same,MIC,"[6]; Streptococcus pneumoniae, AB30, read-out: MIC",4 µg/mL
same,MIC,[7]; [36],4 µg/mL
same,MIC,"[8]; Streptococcus pneumoniae, AB23, read-out: MIC",8 µg/mL
same,MIC,[9]; [33],8 µg/mL
same,MIC,"[10]; Escherichia coli, read-out: MIC",> 16 µg/mL
same,MIC,[11]; [34],4 µg/mL
same,MIC,"[12]; Streptococcus pneumoniae, AB3, read-out: MIC",8 µg/mL
same,MIC,"[13]; Klebsiella oxytoca, read-out: MIC",> 16 µg/mL
same,MIC,[14]; read-out: MIC,4 µg/mL
same,MIC,[15]; [34],8 µg/mL
same,MIC,[16]; [34],2 µg/mL
same,MIC,[17]; [34],8 µg/mL
same,MIC,[18]; [33],8 µg/mL
same,MIC,"[19]; Enterococcus durans, read-out: MIC",4 µg/mL
same,MIC,"[20]; Enterococcus faecalis, read-out: MIC",8 µg/mL
same,MIC,"[21]; Streptococcus pyogenes, read-out: MIC",4 µg/mL
same,MIC,"[22]; Streptococcus pneumoniae, AB22, read-out: MIC",8 µg/mL
same,MIC,"[23]; Staphylococcus aureus, ATCC25923, read-out: MIC",16 µg/mL
same,MIC,"[24]; Streptococcus pneumoniae, ATCC49619, read-out: MIC",4 µg/mL
same,MIC,"[25]; Pseudomonas aeruginosa, ATCC27853, read-out: MIC",> 16 µg/mL
same,MIC,[26]; [35],4 µg/mL
same,MIC,[27]; [34],4 µg/mL
same,MIC,[28]; read-out: MIC,> 16 µg/mL
same,MIC,[29]; [36],8 µg/mL
same,MIC,[30]; [34],4 µg/mL
same,MIC,"[31]; Streptococcus pneumoniae, AB34, read-out: MIC",4 µg/mL
same,MIC,"[32]; Streptococcus pneumoniae, AB14, read-out: MIC",2 µg/mL
"CC(=O)NC[C@H]1CN(c2ccc(N3CCN(c4cc(C(OC(C)=O)OC(C)=O)sc4[N+](=O)[O-])CC3)c(F)c2)C(=O)O1 [Compound No. 5, (S)—N-[[3-[3-Fluoro-4-[4-{3-thienyl(2-nitro)-5-acetyloxy}methylacetate]-1-piperazinyl]phenyl]-2-oxo-5-oxazolidinyl]acetamide]",MIC,[1],>8 µg/mL
same,MIC,[2],0.5 µg/mL
same,MIC,[3],0.25 µg/mL
same,MIC,[4],0.5 µg/mL
same,MIC,[5],<0.06 µg/mL
same,MIC,[6],0.5 µg/mL
same,MIC,[7],1 µg/mL
same,MIC,[8],0.5 µg/mL
same,MIC,[9],0.25 µg/mL
same,MIC,[10],>8 µg/mL
same,MIC,[11],0.25 µg/mL
same,MIC,[12],0.5 µg/mL
same,MIC,[13],>8 µg/mL
same,MIC,[14],<0.06 µg/mL
same,MIC,[15],0.5 µg/mL
same,MIC,[16],0.25 µg/mL
same,MIC,[17],0.5 µg/mL
same,MIC,[18],0.25 µg/mL
same,MIC,[19],2 µg/mL
same,MIC,[20],2 µg/mL
same,MIC,[21],0.5 µg/mL
same,MIC,[22],0.5 µg/mL
same,MIC,[23],0.5 µg/mL
same,MIC,[24],0.5 µg/mL
same,MIC,[25],>8 µg/mL
same,MIC,[26],<0.06 µg/mL
same,MIC,[27],0.5 µg/mL
same,MIC,[28],>8 µg/mL
same,MIC,[29],2 µg/mL
same,MIC,[30],0.5 µg/mL
same,MIC,[31],0.5 µg/mL
same,MIC,[32],0.5 µg/mL
